Laboratory results: the supplement of paper PMC10307832

Experiments:
Experiment in all cases: relative viability (nuclei count vs DMSO), 5 days (fraction); higher = more cells survive
[1] = compound: CN1CCN(CC1)C2=CC(=C(C=C2)NC3=NC(=C(S3)C(=O)C4=C(C=CC=C4Cl)Cl)N)OC [XMD14-99] + NC(=O)Nc1cc(-c2cccc(F)c2)sc1C(=O)N[C@H]1CCCNC1 [AZD7762] (partner 0.2 µM)
Procedure, shortened: (§1)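 One day after seeding in 1536-well plates, lung cancer cell lines were dosed by pin tool. Dosing was either single-drug or a fixed anchor-drug dose plus five library-drug doses (not always all listed) in √10 steps. After 5 days, nuclei were stained in one fix-and-stain step and counted on 4× images, and relative viability is the nuclei count of treated wells over that of vehicle wells, given as the median of duplicate plates.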

[2] = compound: CN1CCN(CC1)C2=CC(=C(C=C2)NC3=NC(=C(S3)C(=O)C4=C(C=CC=C4Cl)Cl)N)OC [XMD14-99] + COc1cccc2cc(-c3nc([C@H]4CC[C@H](C(=O)O)CC4)n4ncnc(N)c34)[nH]c12 [OSI-027] (partner 0.5 µM)
Procedure, shortened: as §1

[3] = compound: N[C@@H]1CCCN(c2c(/C=C3\SC(=O)NC3=O)cccc2-c2ccccc2)C1 [AZD1208] + Cc1nc(NC(=O)N2CCC[C@H]2C(N)=O)sc1-c1ccnc(C(C)(C)C(F)(F)F)c1 [Alpelisib] (partner 2 µM)
Procedure, shortened: as §1

[4] = compound: CN1CCN(CC1)C2=CC(=C(C=C2)NC3=NC(=C(S3)C(=O)C4=C(C=CC=C4Cl)Cl)N)OC [XMD14-99] + Cc1cc(Nc2cc(N3CCN(C)CC3)nc(Sc3ccc(NC(=O)C4CC4)cc3)n2)n[nH]1 [Tozasertib] (partner 0.1 µM)
Procedure, shortened: as §1

Row | Cell Line | relative viability ([1]; first compound 0.08 µM) | relative viability ([1]; first compound 0.8 µM) | relative viability ([1]; first compound 2.53 µM) | relative viability ([1]; first compound 8 µM) | relative viability ([2]; first compound 0.08 µM) | relative viability ([2]; first compound 0.8 µM) | relative viability ([2]; first compound 2.53 µM) | relative viability ([2]; first compound 8 µM) | relative viability ([3]; first compound 0.08 µM) | relative viability ([3]; first compound 0.253 µM) | relative viability ([3]; first compound 0.8 µM) | relative viability ([3]; first compound 2.53 µM) | relative viability ([3]; first compound 8 µM) | relative viability ([4]; first compound 0.08 µM) | relative viability ([4]; first compound 0.8 µM) | relative viability ([4]; first compound 2.53 µM) | relative viability ([4]; first compound 8 µM)
1 | NCI-H1975 | 0.743 | 0.745 | 0.717 | 0.569 | 0.825 | 0.822 | 0.653 | 0.535 | 0.603 | 0.64 | 0.617 | 0.63 | 0.607 | 0.693 | 0.733 | 0.656 | 0.281
2 | NCI-H1944 | 0.501 | 0.539 | 0.436 | 0.328 | 0.382 | 0.44 | 0.358 | 0.278 | 0.864 | 0.762 | 0.715 | 0.726 | 0.6 | 0.226 | 0.256 | 0.255 | 0.235
3 | LU99A | 0.3 | 0.227 | 0.31 | 0.235 | 0.302 | 0.308 | 0.297 | 0.25 | 0.497 | 0.481 | 0.462 | 0.429 | 0.345 | 0.294 | 0.236 | 0.212 | 0.196
4 | NCI-H2405 | 0.745 | 0.809 | 0.586 | 0.479 | 0.593 | 0.606 | 0.607 | 0.5 | 0.692 | 0.727 | 0.637 | 0.728 | 0.723 | 0.758 | 0.713 | 0.701 | 0.501
5 | NCI-H2023 |  |  |  |  | 0.42 | 0.427 | 0.299 | 0.209 | 0.512 | 0.448 | 0.396 | 0.461 | 0.45 | 0.396 | 0.332 | 0.302 | 0.185
6 | HCC-15 | 1.22 | 1.17 | 1.21 | 1.04 | 0.606 | 0.622 | 0.638 | 0.463 | 0.742 | 0.823 | 0.557 | 0.664 | 0.584 | 0.421 | 0.31 | 0.322 | 0.199
7 | HCC-44 | 1.05 | 1.04 | 0.993 | 0.981 | 0.46 | 0.493 | 0.421 | 0.469 | 0.722 | 0.854 | 0.744 | 0.695 | 0.626 | 1 | 0.921 | 0.929 | 0.605
8 | COR-L23 |  |  |  |  | 0.796 | 0.724 | 0.561 | 0.406 | 0.735 | 0.64 | 0.715 | 0.721 | 0.657 | 0.18 | 0.211 | 0.182 | 0.151
9 | HCC-78 | 0.567 | 0.565 | 0.749 | 0.404 | 0.389 | 0.339 | 0.377 | 0.319 | 0.329 | 0.339 | 0.27 | 0.257 | 0.266 | 0.407 | 0.335 | 0.398 | 0.347
10 | NCI-H1299 |  |  |  |  |  |  |  |  | 1.08 | 1.08 | 1.07 | 1.03 | 1.13 |  |  |  | 
11 | NCI-H838 | 0.91 | 0.952 | 0.975 | 0.897 | 0.481 | 0.403 | 0.356 | 0.298 | 0.962 | 1.13 | 0.887 | 0.959 | 0.882 | 0.265 | 0.24 | 0.269 | 0.194
12 | NCI-H661 |  |  |  |  | 0.777 | 0.673 | 0.498 | 0.416 | 0.706 | 0.815 | 0.529 | 0.724 | 0.665 | 0.355 | 0.337 | 0.37 | 0.338
13 | NCI-H1650 |  |  |  |  | 0.705 | 0.7 | 0.49 | 0.395 |  |  |  |  |  | 0.351 | 0.422 | 0.319 | 0.258
14 | COR-L 105 |  |  |  |  | 0.701 | 0.646 | 0.647 | 0.409 | 1.06 | 0.94 | 0.763 | 1.06 | 0.807 | 0.295 | 0.426 | 0.33 | 0.328
15 | NCI-H2009 |  |  |  |  | 0.611 | 0.607 | 0.508 | 0.273 | 1.13 | 1.17 | 1.07 | 1.13 | 1.13 | 0.683 | 0.617 | 0.541 | 0.399
16 | ChaGo-K-1 | 0.844 | 0.901 | 0.826 | 0.825 | 0.554 | 0.658 | 0.612 | 0.472 |  |  |  |  |  | 0.217 | 0.199 | 0.208 | 0.226
17 | NCI-H520 |  |  |  |  | 0.251 | 0.262 | 0.231 | 0.206 | 0.848 | 0.805 | 0.641 | 0.896 | 0.802 | 0.432 | 0.438 | 0.363 | 0.338
18 | NCI-H1648 | 0.715 | 0.625 | 0.672 | 0.581 | 0.268 | 0.25 | 0.231 | 0.227 |  |  |  |  |  | 0.362 | 0.292 | 0.316 | 0.253
19 | NCI-H1563 |  |  |  |  | 0.753 | 0.766 | 0.733 | 0.641 | 0.898 | 0.826 | 0.954 | 0.951 | 0.834 |  |  |  | 
20 | A549 |  |  |  |  |  |  |  |  | 0.676 | 0.622 | 0.48 | 0.687 | 0.448 |  |  |  | 
21 | NCI-H522 | 0.693 | 1.01 | 0.806 | 0.924 | 0.742 | 0.742 | 0.683 | 0.72 |  |  |  |  |  | 0.513 | 0.646 | 0.712 | 0.639
22 | NCI-H1623 |  |  |  |  | 0.434 | 0.43 | 0.392 | 0.396 |  |  |  |  |  | 0.429 | 0.429 | 0.38 | 0.394
23 | SW 900 | 0.633 | 0.681 | 0.71 | 0.548 | 0.532 | 0.727 | 0.548 | 0.366 |  |  |  |  |  | 0.665 | 0.453 | 0.451 | 0.37
24 | IA-LM |  |  |  |  |  |  |  |  | 0.83 | 0.617 | 0.826 | 0.837 | 0.569 |  |  |  | 
25 | EBC-1 |  |  |  |  |  |  |  |  | 0.783 | 0.806 | 0.885 | 0.75 | 0.817 |  |  |  | 
